Here are results for 55 compounds from patent US20230115176A1 (Ra Pharmaceuticals, Inc., priority 2019, published 2023).

The target of the experiment is T1, Human C5 (Homo sapiens, UniProt P01031).
T1 construct: purchased Complement Technology
T1 sequence (P01031 19-1676): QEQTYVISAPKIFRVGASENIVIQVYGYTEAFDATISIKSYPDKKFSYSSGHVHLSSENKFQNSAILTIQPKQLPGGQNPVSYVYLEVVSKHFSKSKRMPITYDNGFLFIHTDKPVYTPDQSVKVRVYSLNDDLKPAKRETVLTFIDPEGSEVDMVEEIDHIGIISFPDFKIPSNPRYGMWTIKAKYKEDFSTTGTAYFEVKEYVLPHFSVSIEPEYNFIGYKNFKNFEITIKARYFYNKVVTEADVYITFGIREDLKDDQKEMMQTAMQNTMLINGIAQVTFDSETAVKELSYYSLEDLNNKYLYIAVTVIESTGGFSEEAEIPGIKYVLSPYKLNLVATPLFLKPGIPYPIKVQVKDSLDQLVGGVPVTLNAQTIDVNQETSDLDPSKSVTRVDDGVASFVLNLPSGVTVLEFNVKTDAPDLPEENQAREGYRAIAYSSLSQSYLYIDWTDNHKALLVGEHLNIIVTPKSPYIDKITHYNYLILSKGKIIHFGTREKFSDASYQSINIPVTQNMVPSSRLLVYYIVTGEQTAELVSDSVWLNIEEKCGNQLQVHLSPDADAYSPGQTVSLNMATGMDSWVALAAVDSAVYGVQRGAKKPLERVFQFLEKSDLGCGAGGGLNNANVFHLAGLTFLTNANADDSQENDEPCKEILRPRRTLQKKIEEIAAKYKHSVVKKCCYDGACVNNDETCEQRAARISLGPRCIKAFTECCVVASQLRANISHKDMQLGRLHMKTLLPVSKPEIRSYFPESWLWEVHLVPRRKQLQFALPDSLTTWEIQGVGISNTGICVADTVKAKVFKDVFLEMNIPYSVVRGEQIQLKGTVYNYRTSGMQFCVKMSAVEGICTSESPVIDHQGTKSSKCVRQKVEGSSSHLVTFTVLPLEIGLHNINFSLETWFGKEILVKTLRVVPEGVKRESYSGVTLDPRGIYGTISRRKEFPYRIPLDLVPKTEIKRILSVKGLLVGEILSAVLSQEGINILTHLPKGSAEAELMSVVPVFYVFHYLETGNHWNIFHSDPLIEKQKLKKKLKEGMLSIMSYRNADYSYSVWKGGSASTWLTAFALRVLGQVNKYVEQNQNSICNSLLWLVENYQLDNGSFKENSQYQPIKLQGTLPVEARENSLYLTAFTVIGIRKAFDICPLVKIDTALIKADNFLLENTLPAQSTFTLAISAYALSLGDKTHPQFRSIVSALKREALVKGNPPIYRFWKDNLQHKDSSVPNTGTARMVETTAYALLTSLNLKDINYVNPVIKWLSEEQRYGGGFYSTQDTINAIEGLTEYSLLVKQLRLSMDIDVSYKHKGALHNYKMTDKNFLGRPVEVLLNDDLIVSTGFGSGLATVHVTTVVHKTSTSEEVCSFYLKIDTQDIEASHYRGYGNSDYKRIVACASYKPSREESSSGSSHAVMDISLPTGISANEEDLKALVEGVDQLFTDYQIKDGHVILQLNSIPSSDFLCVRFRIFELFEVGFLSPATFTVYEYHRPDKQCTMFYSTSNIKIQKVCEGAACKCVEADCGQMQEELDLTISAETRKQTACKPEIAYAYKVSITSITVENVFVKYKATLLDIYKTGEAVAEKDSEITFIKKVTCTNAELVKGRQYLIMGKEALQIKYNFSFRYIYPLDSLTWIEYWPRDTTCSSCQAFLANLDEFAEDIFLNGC
Kind of experiment: Red blood cell (RBC) hemolysis assay, luminescent (Example 13, Table 22). Format: cell-based. To be noted: sheep EA cells, […] C5-depleted human serum, 0.5 nM human C5, 1 hour 37° C., luminescence. From the text:
Compound CU0136 is a racemic mixture of Compound CU0186 and CU0187. Numbers in parenthesis following compound numbers indicate alternate enantiomers (as distinguished by retention time during chromatographical separation).
In general, IC50 refers to the concentration that inhibits the measured activity by half. Read a low IC50 as greater potency in that assay. The compound `CCCCCOc1cc(N2CCCN(Cc3ccc(CC(=O)N4CCCC4)cc3OC)C2=O)ccc1OC` [CU0006] showed an IC50 of 0.0195 µM. To `CCCCCOc1cc(N2CCN(Cc3ccccc3Cl)C2=O)ccc1OC` [CU0009] belongs 0.203 µM. The figure for `CCCCCOc1cc(N2CCCN(Cc3ccccc3C3CC3)C2=O)ccc1OC` [CU0015] is 0.519 µM; for `CCCCCOc1cc(N2CCN(C[C@@H](O)c3ccccc3)C2=O)ccc1OC` [CU0016] it is 2.62 µM; for `CCCCCOc1cc(N2CCCN(Cc3cccc4c3ccn4Cc3cccnc3)C2=O)ccc1OC` [CU0023] it is 0.0207 µM. Regarding `CCCCCOc1cc(N2CCCN(Cc3cccc4c3ccn4CC(=O)N(C)C)C2=O)ccc1C1CC1` [CU0026], inhibition was half-maximal at 0.0625 µM (IC50). The figure for `CCCCCOc1cc(N2CCN(Cc3ccnc4c3ccn4CC(=O)N(C)C)C2=O)ccc1C1CC1` [CU0034] is 1.23 µM; for `COc1ccc(N2CCCCN(Cc3ccnc4c3ccn4CC(=O)N(C)C)C2=O)cc1OCCCC(C)C` [CU0038] it is 0.267 µM; for `CCCCCOc1cc(N2CCCN(C(C)c3ccnc4c3ccn4C3CCN(C)C3=O)C2=O)ccc1OC` (stereo not shown) [CU0040(1)] it is 0.0665 µM. The figure for `CCCCCOc1cc(N2CCCN(C(C)c3ccnc4c3ccn4C3CCN(C)C3=O)C2=O)ccc1OC` (stereo not shown) [CU0040(2)] is 0.0763 µM; for `CCCCCOc1cc(N2CCN(Cc3ccnc4c3ccn4CC(=O)N3CCOC(COC)C3)C2=O)ccc1OC` (stereo not shown) [CU0047] it is 3.14 µM; for `CCCCCOc1cc(N2CCN(Cc3ccnc4c3ccn4CC(=O)N3CCCOCC3)C2=O)ccc1OC` [CU0052] it is 0.0614 µM. `CCCCCOc1cc(N2CCCN(Cc3ccnc4c3ccn4CC(=O)N3CCCOCC3)C2=O)ccc1OC` [CU0053] gave an IC50 of 0.0233 µM. To `CCCCCOc1cc(N2CCCN(Cc3ccnc4c3ccn4CC(=O)N3CCCOCC3)C2=O)ccc1C1CC1` [CU0054] belongs 0.117 µM; to `CCCCCOc1cc(N2CCN(Cc3ccnc4c3ccn4CC(=O)N3CCNC(=O)C3)C2=O)ccc1OC` [CU0058], 2.49 µM; to `CCCCCOc1cc(N2CCCN(Cc3cccc4nc(C)oc34)C2=O)ccc1OC` [CU0066], 0.243 µM. As for `CCCCCOc1cc(N2CCCN(Cc3cccc4nc(CC)oc34)C2=O)ccc1OC` [CU0067], the IC50 came to 0.946 µM.

Compound `CCCCCOc1cc(N2CCCN(Cc3ccc(CC(=O)O)cc3OC)C2=O)ccc1OC` [CU0102] returned an IC50 of 0.0537 µM. In the case of `CCCCCOc1cc(N2CCCN(Cc3ccc(CC(=O)N(C)C)cc3OC)C2=O)ccc1C1CC1` [CU0113], the half-inhibitory concentration (IC50) was found to be 0.0548 µM.

The compound `CCCCCOc1cc(N2CCCN(Cc3ccc(CC(=O)N4CCCOCC4)cc3OC)C2=O)ccc1C1CC1` [CU0114] returned an IC50 of 0.0991 µM.

In the case of `CCCCCOc1cc(N2CCCN(Cc3cccc(-c4cnn(C5COC5)c4)c3F)C2=O)ccc1OC` [CU0119], the IC50 is 0.052 µM. The figure for `CCCCCOc1cc(N2CCCN(Cc3cccc(-c4cnn(C(C)OCC)c4)c3F)C2=O)ccc1OC` (stereo not shown) [CU0125] is 0.0736 µM.

Compound `CCCCCOc1cc(N2CCCN(Cc3cccc(-c4cnn(CC(C)C)c4)c3F)C2=O)ccc1OC` [CU0126] gave an IC50 of 0.153 µM.

The compound `CCCCCOc1cc(N2CCCN(Cc3cccc(C4=CCNCC4)c3F)C2=O)ccc1OC` [CU0128] yielded an IC50 of 0.0606 µM.

The compound `CCCCCOc1cc(N2CCCN(Cc3cccc(N4CCN(C5COC5)CC4)c3F)C2=O)ccc1OC` [CU0130] came in with an IC50 of 0.147 µM. To `CCCCCOc1cc(N2CCCN(Cc3cccc(N4CCC(C(C)(C)O)C4)c3F)C2=O)ccc1OC` (stereo not shown) [CU0131] belongs 0.151 µM.

The compound `CCCCCOc1cc(N2CCCN(Cc3cccc(N4CCOCC4)c3F)C2=O)ccc1OC` [CU0132] yielded an IC50 of 0.301 µM. Turning to `CCCCCOc1cc(N2CCCN(Cc3cccc(N4CCN(C)CC4)c3F)C2=O)ccc1OC` [CU0133], the midpoint of inhibition, the IC50, lay at 0.0822 µM. The figure for `CCCCCOc1cc(N2CCCN(Cc3ccc(CC(=O)NC4CCN(C(C)=O)C4)cc3Cl)C2=O)ccc1OC` (stereo not shown) [CU0134] is 0.0161 µM. The compound `CCCCCOc1cc(N2CCCN(Cc3ccc(CC(=O)NC4CCN(C(C)C)CC4)cc3Cl)C2=O)ccc1OC` [CU0135] returned a half-maximal inhibitory concentration (IC50) of 0.0145 µM. The figure for `CCCCCOc1cc(N2CCCN(Cc3ccc(CNC(=O)OC)cc3OC)C2=O)ccc1OC` [CU0137] is 0.01 µM; for `CCCCCOc1cc(N2CCCN(Cc3ccc(CCOC(=O)N4CCCC4)cc3OC)C2=O)ccc1OC` [CU0138] it is 0.0554 µM. The figure for `CCCCCOc1cc(N2CCCN(Cc3ccc(CCn4ccnc4)cc3OC)C2=O)ccc1OC` [CU0139] is 0.0917 µM; for `COc1cc(CC(=O)NC2CCN(C(C)=O)C2)ccc1CN1CCCN(c2ccc(OC)c(OCCCC(C)(F)F)c2)C1=O` (stereo not shown) [CU0142] it is 0.0183 µM.

The compound `COc1ccccc1CN1CCCN(c2ccc(OC)c(OCCCC(C)(F)F)c2)C1=O` [CU0143] registered an IC50 of 0.0233 µM. `CCCCCOc1cc(N2CCCN(Cc3ccc(F)c(C4=CCNCC4)c3)C2=O)ccc1OC` [CU0144] returned an IC50 of 0.109 µM. The figure for `COc1cc(CC(=O)N2CCCOCC2)ccc1CN1CCCN(c2ccc(OC)c(OCCCC(C)(F)F)c2)C1=O` [CU0146] is 0.0125 µM; for `CCCCCOc1cc(N2CCCN(Cc3ccc(CCn4ccnn4)cc3OC)C2=O)ccc1OC` [CU0147] it is 0.0464 µM. As to `CCCCCOc1cc(N2CCCN(Cc3ccc(CCn4cnnn4)cc3OC)C2=O)ccc1OC` [CU0148], the IC50 is 0.036 µM. The IC50 values of the last two compounds are within 1.5-fold of each other. For `CCCCCOc1cc(N2CCCN(Cc3ccc(CN(C)C(=O)OC)cc3OC)C2=O)ccc1OC` [CU0149], the IC50 was found to be 0.0241 µM. For the compound `CCCCCOc1cc(N2CCCN(Cc3ccc(F)c(-c4cnn(C5CCN(C)CC5)c4)c3)C2=O)ccc1OC` [CU0150], the half-maximal inhibitory concentration (IC50) stood at 0.0876 µM.

Regarding `CCCCCOc1cc(N2CCCN(Cc3cc(C4=CCNCC4)ccc3OC)C2=O)ccc1OC` [CU0151], the IC50 stood at 0.707 µM. `CCCCCOc1cc(N2CCCN(Cc3cc(-c4cnn(C5CCN(C)CC5)c4)ccc3OC)C2=O)ccc1OC` [CU0152] returned an IC50 of 0.146 µM. The figure for `CCCCCOc1cc(N2CCCN(Cc3ccc(Br)cc3OC)C2=O)ccc1OC` [CU0153] is 0.233 µM; for `CCCCCOc1cc(N2CCCN(Cc3cccc(C4=CCNCC4)c3OC)C2=O)ccc1OC` [CU0155] it is 0.0437 µM; for `CCCCCOc1cc(N2CCCN(Cc3cc(OC)cc(C4=CCNCC4)c3)C2=O)ccc1OC` [CU0156] it is 0.241 µM. Regarding `CCCCCOc1cc(N2CCCN(Cc3cccc(-c4cnn(C5CCN(C)CC5)c4)c3OC)C2=O)ccc1OC` [CU0157], the IC50 was found to be 0.146 µM. The figure for `CCCCCOc1cc(N2CCCN(Cc3cc(OC)cc(-c4cnn(C5CCN(C)CC5)c4)c3)C2=O)ccc1OC` [CU0158] is 0.0278 µM; for `CCCCCOc1cc(N2CCCN(Cc3ccc(CCO)cc3OC)C2=O)ccc1OC` [CU0159] it is 0.0988 µM. In the case of `COc1cc(Cl)ccc1CN1CCCN(c2ccc(OC)c(OCc3ccccc3)c2)C1=O` [CU0162], the half-inhibitory concentration (IC50) turned out to be 2.87 µM. This IC50 is about 29-fold higher than that of the compound before.

Turning to `COc1cc(F)ccc1CN1CCCN(c2ccc(OC)c(OCc3ccccc3)c2)C1=O` [CU0163], the IC50 worked out at 1 µM. The figure for `COc1ccc(F)cc1CN1CCCN(c2ccc(OC)c(OCc3ccccc3)c2)C1=O` [CU0164] is 0.592 µM. Consider `CCCCCOc1cc(N2CCCN(Cc3ccc(F)cc3OC)C2=O)ccc1OC` [CU0165], for which the IC50 was 0.036 µM. As for `CCCCCOc1cc(N2CCCN(Cc3ccc(Cl)cc3OC)C2=O)ccc1OC` [CU0166], the IC50 was 0.0921 µM.

Turning to `C=CCCCOc1cc(N2CCCN(Cc3cc(F)ccc3OC)C2=O)ccc1OC` [CU0167], the IC50 amounted to 0.0399 µM.
